Test results from US4343943A, “Cephalosporin analogs” (Kyowa Hakko Kogyo Co., Ltd., priority 1978, dated 1982).
Values after ≈ are worked out from the molar mass of the structure shown. Like-named read-outs stand apart in the source and are kept apart here.

Key:
Assay type in all cases: cell-based
[1] = tested on: Escherichia coli GN 2411-5; experiment: Antibacterial activity, Heart Infusion Agar Dilution Method (pH 7.2); settings: GN2411
Experimental: (§1) Antibacterial activities of the compounds obtained in Examples 6 and 8 are measured according to the Heart Infusion Agar Dilution Method (pH 7.2). Cefazolin is used as a control.

Escherichia coli Juhl = experiment: as above
Experimental: as §1

Escherichia coli NIHJC-2 = experiment: as above
Experimental: as §1

[2] = tested on: Klebsiella pneumoniae 8045; experiment: as above
Experimental: as §1

[3] = tested on: Klebsiella pneumoniae Y-60; experiment: as above; settings: Y60
Experimental: as §1

Proteus mirabilis 1287 = experiment: as above
Experimental: as §1

Proteus morganii KY4298 = experiment: as above; settings: Morganella morganii
Experimental: as §1

Proteus rettgeri KY4289 = experiment: as above; settings: Providencia rettgeri
Experimental: as §1

Proteus vulgaris 6897 = experiment: as above
Experimental: as §1

[4] = tested on: Pseudomonas aeruginosa 145; experiment: as above
Experimental: as §1

[5] = tested on: Pseudomonas aeruginosa No. 1; experiment: as above
Experimental: as §1

Pseudomonas putida F264 = experiment: as above
Experimental: as §1

Serratia marcescens T-26 = experiment: as above; settings: T26
Experimental: as §1

Serratia marcescens T-55 = experiment: as above; settings: T55
Experimental: as §1

[6] = tested on: Staphylococcus aureus 209-P; experiment: as above
Experimental: as §1

[7] = tested on: Staphylococcus aureus Smith; experiment: as above
Experimental: as §1

[8] = tested on: Staphylococcus epidermidis; experiment: as above
Experimental: as §1

Bacillus subtilis KY4273 = experiment: Antibacterial activity, Heart Infusion Agar Dilution Method (pH 7.0)
Experimental: (§2) Antibacterial activities of the product obtained in this Example are measured according to the Heart Infusion Agar Dilution Method (pH 7.0).

Erwinia aroides KY3241 = experiment: as above
Experimental: as §2

Escherichia coli KY4271 = experiment: as above
Experimental: as §2

[9] = tested on: Klebsiella pneumonia KY4275; experiment: as above; settings: Klebsiella pneumoniae
Experimental: as §2

Proteus vulgaris KY4277 = experiment: as above
Experimental: as §2

[10] = tested on: Salmonella typhosa KY4278; experiment: as above; settings: Salmonella enterica
Experimental: as §2

Shigella sonnei KY4281 = experiment: as above
Experimental: as §2

[11] = tested on: Staphylococcus aureus KY4279; experiment: as above
Experimental: as §2

Vibrio percolans KY4174 = experiment: as above; settings: Comamonas terrigena
Experimental: as §2

[12] = Escherichia coli Juhl, agar dilution, read-out: MIC
[13] = NIHJC2, Escherichia coli NIHJC-2, agar dilution, pH 7.2, read-out: MIC

Row | SMILES | MIC [1] [µg/mL] | MIC (Escherichia coli Juhl; [12]) [µg/mL] | MIC (Escherichia coli NIHJC-2; [13]) [µg/mL] | MIC [2] [µg/mL] | MIC [3] [µg/mL] | MIC (Proteus mirabilis 1287) [µg/mL] | MIC (Proteus morganii KY4298) [µg/mL] | MIC (Proteus rettgeri KY4289) [µg/mL] | MIC (Proteus vulgaris 6897) [µg/mL] | MIC [4] [µg/mL] | MIC [5] [µg/mL] | MIC (Pseudomonas putida F264) [µg/mL] | MIC (Serratia marcescens T-26) [µg/mL] | MIC (Serratia marcescens T-55) [µg/mL] | MIC [6] [µg/mL] | MIC [7] [µg/mL] | MIC [8] [µg/mL] | further results
1 | CO/N=C(/C(=O)N[C@@H]1C(=O)N2C(C(=O)O)=CC=C[C@H]12)c1csc(N)n1 (relative stereo) [Example 6, (±)-cis-7-[2-(2-amino-4-thiazolyl)-2-anti-methoxyiminoacetamido]-1-azabicyclo[4,2,0]oct-2,4-diene-8-on-2-carboxylic acid] | ≥ 50 | ≥ 50 | ≥ 50 | 50 (≈ 138 µM) | ≥ 50 | ≥ 50 | ≥ 50 | ≥ 50 | ≥ 50 | ≥ 50 | ≥ 50 | ≥ 50 | ≥ 50 | ≥ 50 | ≥ 50 | ≥ 50 | ≥ 50 | 
2 | CO/N=C(\C(=O)N[C@@H]1C(=O)N2C(C(=O)O)=CC=C[C@H]12)c1csc(N)n1 (relative stereo) [Example 8, (±)-cis-7-[2-(2-amino-4-thiazolyl)-2-syn-methoxyiminoacetamido]-1-azabicyclo[4,2,0]oct-2,4-diene-8-on-2-carboxylic acid] | 25 (≈ 68.8 µM) | 50 (≈ 138 µM) | 25 (≈ 68.8 µM) | 6.25 (≈ 17.2 µM) | ≥ 50 | 6.25 (≈ 17.2 µM) | 12.5 (≈ 34.4 µM) | 6.25 (≈ 17.2 µM) | 6.25 (≈ 17.2 µM) | ≥ 50 | ≥ 50 | 12.5 (≈ 34.4 µM) | ≥ 50 | 50 (≈ 138 µM) | ≥ 50 | ≥ 50 | ≥ 50 | 
3 | Cc1nnc(SCC2=C(C(=O)O)N3C(=O)[C@@H](NC(=O)Cn4cnnn4)[C@H]3SC2)s1 [Cefazolin, reference compound] |  |  |  | 0.78 (≈ 1.72 µM) | 3.12 (≈ 6.86 µM) | 12.5 (≈ 27.5 µM) | > 100 | 25 (≈ 55 µM) | 12.5 (≈ 27.5 µM) | > 100 |  | > 100 | > 100 | 50 (≈ 110 µM) | < 0.05 | 0.4 (≈ 0.88 µM) | 0.78 (≈ 1.72 µM) | MIC (Escherichia coli Juhl; Escherichia coli): 1.56 µg/mL (≈ 3.43 µM); MIC (Escherichia coli NIHJC-2; Escherichia coli, NIHJC2, pH 7.2): 1.56 µg/mL (≈ 3.43 µM)
4 | O=C(Cc1cccs1)NC1C(=O)N2C(C(=O)O)=CC=CC12 (stereo not drawn) [Example 10, (±)-cis-7-[2-(thiophene-2-yl)acetylamino]-1-azabicyclo[4,2,0]oct-2,4-diene-8-on-2-carboxylic acid] |  |  |  |  |  |  |  |  |  |  |  |  |  |  |  |  |  | MIC (Bacillus subtilis KY4273): 55.6 µg/mL (≈ 183 µM); MIC (Erwinia aroides KY3241): 13.9 µg/mL (≈ 45.7 µM); MIC (Escherichia coli KY4271): > 55.6 µg/mL; MIC [9]: 27.8 µg/mL (≈ 91.3 µM); MIC (Proteus vulgaris KY4277): 27.8 µg/mL (≈ 91.3 µM); MIC [10]: 13.9 µg/mL (≈ 45.7 µM); MIC (Shigella sonnei KY4281): > 55.6 µg/mL; MIC [11]: 27.8 µg/mL (≈ 91.3 µM); MIC (Vibrio percolans KY4174): 55.6 µg/mL (≈ 183 µM)
